Key:
[1] = molecular target: T1, human indoleamine 2,3-dioxygenase 1 (hIDO1) (Homo sapiens, UniProt P14902); experiment: In-vitro human indoleamine 2,3-dioxygenase 1 (IDO1) enzyme assay; assay type: biochemical; conditions: for IC50: hIDO1 enzyme; for inhibition at 1 µM: hIDO1 enzyme at 1.0 μM concentration; for inhibition at 10 µM: hIDO1 enzyme at 10.0 μM concentration
T1 construct: His tag (N); purchased BPS Bioscience, San Diego, Calif., USA; host or cells: E. coli
Method in brief: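 His-tagged hIDO1 (E. coli, 50 ng) incubated with 80 μM tryptophan, 10 mM ascorbate, 10 μM methylene blue, catalase and 0.01% Tween-20 in 50 mM sodium phosphate pH 6.5, 60 min, 37 °C. Piperidine converts N-formylkynurenine to fluorescent NFK-PIP (ex 400/em 500 nm); IC50 by nonlinear regression.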

[2] = molecular target: T2, human tryptophan 2,3-dioxygenase (hTDO) (Homo sapiens, UniProt P48775); experiment: In-vitro human tryptophan 2,3-dioxygenase (TDO) enzyme assay; assay type: biochemical; conditions: for inhibition at 1 µM: hTDO enzyme at 1.0 μM concentration
T2 construct: His tag (N); purchased BPS Bioscience, San Diego, Calif., USA; host or cells: E. coli
Method in brief: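 N-His-tagged hTDO expressed in E. coli (125 ng) incubated with 200 μM L-tryptophan, 100 mM sodium phosphate pH 7.0, 0.01% Tween-20, 100 μM ascorbate, 60 min at 37 °C. Product converted with 200 mM piperidine (65 °C, 20 min) to NFK-PIP, fluorescence 400/500 nm; IC50 by nonlinear regression.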

T2 sequence (P48775 whole entry): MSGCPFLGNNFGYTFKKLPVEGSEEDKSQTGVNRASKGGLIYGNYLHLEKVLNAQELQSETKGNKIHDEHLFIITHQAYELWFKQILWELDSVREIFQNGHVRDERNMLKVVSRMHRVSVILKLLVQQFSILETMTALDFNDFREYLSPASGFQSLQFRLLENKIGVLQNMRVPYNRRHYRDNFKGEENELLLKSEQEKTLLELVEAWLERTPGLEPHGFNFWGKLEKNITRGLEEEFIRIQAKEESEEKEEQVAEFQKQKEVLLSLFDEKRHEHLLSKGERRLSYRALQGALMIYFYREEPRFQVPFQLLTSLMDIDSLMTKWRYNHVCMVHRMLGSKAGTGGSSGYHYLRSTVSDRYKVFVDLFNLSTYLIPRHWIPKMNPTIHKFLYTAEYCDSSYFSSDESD
T1 sequence (P14902 whole entry): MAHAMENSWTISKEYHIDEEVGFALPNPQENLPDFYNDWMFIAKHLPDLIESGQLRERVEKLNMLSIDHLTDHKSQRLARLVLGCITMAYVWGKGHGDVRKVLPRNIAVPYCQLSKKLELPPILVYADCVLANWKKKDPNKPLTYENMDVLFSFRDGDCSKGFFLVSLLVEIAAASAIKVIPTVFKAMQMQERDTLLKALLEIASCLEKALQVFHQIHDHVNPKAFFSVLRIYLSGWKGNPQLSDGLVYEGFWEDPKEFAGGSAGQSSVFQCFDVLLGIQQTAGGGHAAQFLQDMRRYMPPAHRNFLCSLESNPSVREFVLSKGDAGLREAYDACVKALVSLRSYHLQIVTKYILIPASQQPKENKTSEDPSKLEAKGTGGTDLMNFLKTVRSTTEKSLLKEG

Structure (SMILES)	IC50 [1]	inhibition at 1 µM [1]	inhibition at 10 µM [1]	inhibition at 1 µM [2]	inhibition at 10 µM ([2]; hTDO enzyme at 10.0 μM concentration)
CC1=C(c2ccccc2)C(CC(O)C2CCCCC2)n2cncc21 (centres unmarked) [Example 89, 1-Cyclohexyl-2-(7-methyl-6-phenyl-5H-pyrrolo[1,2-c]imidazol-5-yl)-ethane-1-ol]	< 500 nM	≥ 50%	≥ 50%	≥ 50%	≥ 50%
CC1=C(c2cccc(Cl)c2)C(CC(=O)C2CCCCC2)n2cncc21 (centres unmarked) [Example 95]	–	≤ 50%	≥ 50%	≤ 50%	–
CC1=C(c2cccc(Cl)c2)C(CC(O)C2CCCCC2)n2cncc21 (centres unmarked) [Example 96]	–	≤ 50%	≥ 50%	≤ 50%	–
CC1=C(c2ccccc2)C(CC(=O)C2CCC(O)CC2)n2cncc21 (centres unmarked) [Example 99]	–	≤ 50%	≥ 50%	≥ 50%	–
CC1=C(c2ccccc2)C(CC(=O)C2CCOCC2)n2cncc21 (centres unmarked) [Example 100]	–	≤ 50%	≥ 50%	≥ 50%	–
CC1=C(c2ccccc2F)C(CC(=O)C2CCCCC2)n2cncc21 (centres unmarked) [Example 101]	–	≤ 50%	≥ 50%	≥ 50%	–
O=C(CC1C(c2ccccc2)=C(c2ccccc2)c2cncn21)C1CCCCC1 (centres unmarked) [Example 102]	–	≤ 50%	≤ 50%	≤ 50%	–
OC(CC1C(c2ccccc2)=C(c2ccccc2)c2cncn21)C1CCCCC1 (centres unmarked) [Example 103]	–	≤ 50%	≤ 50%	≤ 50%	–
COc1ccc(C2=C(C)c3cncn3C2CC(=O)C2CCCCC2)cc1 (centres unmarked) [Example 104]	–	≤ 50%	≤ 50%	≤ 50%	–
CC1=C(c2ccccc2C)C(CC(O)C2CCCCC2)n2cncc21 (centres unmarked) [Example 105]	–	≤ 50%	≥ 50%	≤ 50%	–
CC(C)C1=C(c2ccccc2)C(CC(=O)C2CCCCC2)n2cncc21 (centres unmarked) [Example 106]	–	≤ 50%	≤ 50%	≤ 50%	–
CC1=C(c2ccccc2)C(CC(=O)C23CC4CC(CC(C4)C2)C3)n2cncc21 (centres unmarked) [Example 107]	–	≤ 50%	≥ 50%	≥ 50%	–
CC1=C(c2ccccc2)C(CC(O)C23CC4CC(CC(C4)C2)C3)n2cncc21 (centres unmarked) [Example 108]	–	≥ 50%	≥ 50%	≥ 50%	–
CC1=C(c2ccccc2)C(CC(=O)C2CCC(C(=O)Nc3ccccc3)CC2)n2cncc21 (centres unmarked) [Example 109, 4-(2-(7-methyl-6-phenyl-5H-pyrrolo[1,2-c]imidazol-5-yl)acetyl)-N-phenylcyclohexane-1-carboxamide]	–	≤ 50%	≥ 50%	≥ 50%	–
CC1=C(c2ccccc2)C(CC(=O)C2CCC(C(=O)Nc3ccc(F)cc3F)CC2)n2cncc21 (centres unmarked) [Example 110]	–	≤ 50%	≥ 50%	≥ 50%	–
CC1=C(c2ccccc2)C(C[C@H](O)C2CCC(C(=O)Nc3ccccc3)CC2)n2cncc21 (some centres unmarked) [Example 112]	< 500 nM	≥ 50%	≥ 50%	≥ 50%	–
CC1=C(c2ccccc2)C(CC(=O)C2CCCN2S(=O)(=O)c2ccc(C)cc2)n2cncc21 (centres unmarked) [Example 113]	–	≤ 50%	≥ 50%	≥ 50%	–
CC1=C(c2ccccc2)C(C[C@@H](O)C2CCCN2S(=O)(=O)c2ccc(C)cc2)n2cncc21 (some centres unmarked) [Example 114]	–	≤ 50%	≥ 50%	≥ 50%	–
CC1=C(c2ccccc2)C(CC(=O)C2CCCN2C(=O)c2ccccc2)n2cncc21 (centres unmarked) [Example 115]	–	≤ 50%	≤ 50%	≤ 50%	–
CC1=C(c2ccccc2)C(C[C@@H](O)C2CCCN2C(=O)c2ccccc2)n2cncc21 (some centres unmarked) [Example 116]	–	≤ 50%	≤ 50%	≤ 50%	–
CC1=C(c2ccccc2)C(CC(=O)C2CCC(C(=O)Nc3ccncc3)CC2)n2cncc21 (centres unmarked) [Example 117]	> 500 nM	≥ 50%	≥ 50%	≥ 50%	–
CC1=C(c2ccccc2)C(CC(=O)C2CCC(C(=O)Nc3ccc(Cl)cc3C)CC2)n2cncc21 (centres unmarked) [Example 118]	–	≥ 50%	≥ 50%	≥ 50%	–

Structure (SMILES)	IC50 [1]	inhibition at 1 µM [1]	inhibition at 10 µM [1]	inhibition at 1 µM [2]	inhibition at 10 µM ([2]; hTDO enzyme at 10.0 μM concentration)
CC1=C(c2ccccc2)C(C[C@H](O)C2CCC(C(=O)Nc3ccncc3)CC2)n2cncc21 (some centres unmarked) [Example 119]	< 500 nM	≥ 50%	≥ 50%	≥ 50%	–
CC1=C(c2ccccc2)C(C[C@H](O)C2CCC(C(=O)Nc3ccc(Cl)cc3C)CC2)n2cncc21 (some centres unmarked) [Example 120]	< 500 nM	≥ 50%	≥ 50%	≥ 50%	–
CC1=C(c2ccccc2)C(CC(=O)C2CCC(C(=O)NC3CCCCC3)CC2)n2cncc21 (centres unmarked) [Example 123]	–	≤ 50%	≥ 50%	≥ 50%	–
CC1=C(c2ccccc2)C(CC(=O)C2CCC(C(=O)N3CCC(=O)CC3)CC2)n2cncc21 (centres unmarked) [Example 124]	–	≤ 50%	≥ 50%	≤ 50%	–
CC1=C(c2ccccc2)C(C[C@H](O)C2CCC(C(=O)N3CCC(O)CC3)CC2)n2cncc21 (some centres unmarked) [Example 125]	–	≥ 50%	≥ 50%	≤ 50%	–
CC1=C(c2ccccc2)C(C[C@H](O)C2CCC(C(=O)NC3CCCCC3)CC2)n2cncc21 (some centres unmarked) [Example 126]	< 500 nM	≥ 50%	≥ 50%	≥ 50%	–
CC1=C(c2ccccc2)C(CC(O)C2CCC(O)CC2)n2cncc21 (centres unmarked) [Example 127]	–	≥ 50%	–	≥ 50%	–
CC1=C(c2ccccc2)C(C[C@H](O)C2CCC(C(=O)Nc3cccnc3)CC2)n2cncc21 (some centres unmarked) [Example 128]	< 500 nM	≥ 50%	≥ 50%	≥ 50%	–
CC1=C(c2ccccc2)C(CC(O)[C@H]2CC[C@H](C(=O)N[C@H]3CC[C@H](O)CC3)CC2)n2cncc21 (some centres unmarked) [Example 129]	> 500 nM	≥ 50%	≥ 50%	≥ 50%	–
CC1=C(c2ccccc2)C(CC(=O)C2CCC(C(=O)O)CC2)n2cncc21 (centres unmarked) [Example 130]	–	≤ 50%	≤ 50%	≤ 50%	–
COC(=O)[C@H]1CC[C@@H]([C@@H](O)CC2C(c3ccccc3)=C(C)c3cncn32)CC1 (some centres unmarked) [Example 131]	< 500 nM	≥ 50%	≥ 50%	≥ 50%	–
CC1=C(c2ccccc2)C(C[C@H](O)C2CCC(C(=O)O)CC2)n2cncc21 (some centres unmarked) [Example 133]	–	≤ 50%	≥ 50%	≥ 50%	–
CNC(=O)C1CCC(C(=O)CC2C(c3ccccc3)=C(C)c3cncn32)CC1 (centres unmarked) [Example 135]	–	≤ 50%	≤ 50%	≥ 50%	–
CC1=C(c2ccccc2)C(CC(=O)C2CCC(c3ccccc3)CC2)n2cncc21 (centres unmarked) [Example 136]	–	≥ 50%	≥ 50%	≥ 50%	–
CC1=C(c2ccccc2)C(CC(O)C2CCN(C(=O)OCc3ccccc3)CC2)n2cncc21 (centres unmarked) [Example 137, 4-[1-Hydroxy-2-(7-methyl-6-phenyl-5H-pyrrolo[1,2-c]imidazol-5-yl)-ethyl]-piperidine-1-carboxylic acid benzyl ester]	< 500 nM	≥ 50%	≥ 50%	≥ 50%	–
CC1=C(c2ccccc2)C(CC(=O)C2CCN(C(=O)Cc3ccccc3F)CC2)n2cncc21 (centres unmarked) [Example 138, 2-(2-Fluorophenyl)-1-(4-(2-(7-methyl-6-phenyl-5H-pyrrolo[1,2-c]imidazol-5-yl)acetyl)piperidin-1-yl)ethan-1-one]	–	≥ 50%	≥ 50%	≥ 50%	–
CC1=C(c2ccccc2)C(CC(O)C2CCN(C(=O)Cc3ccccc3F)CC2)n2cncc21 (centres unmarked) [Example 139, 2-(2-Fluorophenyl)-1-(4-(1-hydroxy-2-(7-methyl-6-phenyl-5H-pyrrolo[1,2-c]imidazol-5-yl)ethyl)piperidin-1-yl)ethan-1-one]	< 500 nM	≥ 50%	≥ 50%	≥ 50%	–
CC1=C(c2ccccc2)C(CC(=O)C2CCN(Cc3ccccc3)CC2)n2cncc21 (centres unmarked) [Example 140]	–	≤ 50%	≤ 50%	≤ 50%	–
CC1=C(c2ccccc2)C(CC(O)C2CCN(Cc3ccccc3)CC2)n2cncc21 (centres unmarked) [Example 141]	–	≤ 50%	≤ 50%	≤ 50%	–
CC1=C(c2ccccc2)C(CC(=O)C2CCN(C(=O)c3ccccc3)CC2)n2cncc21 (centres unmarked) [Example 142]	–	≤ 50%	≥ 50%	≥ 50%	–
CC1=C(c2ccccc2)C(CC(=O)C2CCN(S(=O)(=O)c3ccccc3)CC2)n2cncc21 (centres unmarked) [Example 143]	–	≤ 50%	≥ 50%	≥ 50%	–
